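How tested: cells in 96-well plates exposed to compound for 48 hours at five concentrations. GI50 = concentration required for 50% inhibition of growth. TGI is the concentration that stops growth completely.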
Experiments:
Experiment in all cases: NCI-60 cell line screen, 48 h
SNB-19 CNS = system: SNB-19 CNS
HOP-62 NSCLC = system: HOP-62 NSCLC
IGROV1 ovarian = system: IGROV1 ovarian
UO-31 renal = system: UO-31 renal
SW-620 colon = system: SW-620 colon
SK-OV-3 ovarian = system: SK-OV-3 ovarian
MDA-MB-435 = system: MDA-MB-435
NCI-H522 lung = system: NCI-H522 lung
A549 NSCLC = system: A549 NSCLC
LOX IMVI melanoma = system: LOX IMVI melanoma
A498 renal = system: A498 renal
K-562 leukemia = system: K-562 leukemia
MDA-MB-231 breast = system: MDA-MB-231 breast
CCRF-CEM leukemia = system: CCRF-CEM leukemia
HCT-116 colon = system: HCT-116 colon
SK-MEL-2 melanoma = system: SK-MEL-2 melanoma
NCI-H226 lung = system: NCI-H226 lung
SR leukemia = system: SR leukemia
SF-539 CNS = system: SF-539 CNS
T-47D breast = system: T-47D breast
HS 578T breast = system: HS 578T breast
MOLT-4 leukemia = system: MOLT-4 leukemia
MALME-3M melanoma = system: MALME-3M melanoma
OVCAR-8 ovarian = system: OVCAR-8 ovarian
KM12 colon = system: KM12 colon
DU-145 prostate = system: DU-145 prostate
TK-10 renal = system: TK-10 renal
HCT-15 colon = system: HCT-15 colon
MCF7 breast = system: MCF7 breast

NC(=O)/C(=C/n1cnc(-c2cc(C(F)(F)F)cc(C(F)(F)F)c2)n1)c1cncnc1
GI50 (SNB-19 CNS): 654 nM | TGI (SNB-19 CNS): 15000 nM | GI50 (HOP-62 NSCLC): 1060 nM | TGI (HOP-62 NSCLC): 17200 nM | GI50 (IGROV1 ovarian): 696 nM | TGI (IGROV1 ovarian): 14700 nM | GI50 (UO-31 renal): 426 nM | TGI (UO-31 renal): 12800 nM | GI50 (SW-620 colon): 175 nM | TGI (SW-620 colon): 7030 nM | GI50 (SK-OV-3 ovarian): 1570 nM | TGI (SK-OV-3 ovarian): 43100 nM | GI50 (MDA-MB-435): 237 nM | TGI (MDA-MB-435): 3890 nM | GI50 (NCI-H522 lung): 331 nM | TGI (NCI-H522 lung): 4330 nM | GI50 (A549 NSCLC): 552 nM | TGI (A549 NSCLC): > 47100 nM | GI50 (LOX IMVI melanoma): 303 nM | TGI (LOX IMVI melanoma): 4360 nM | GI50 (A498 renal): 84.8 nM | TGI (A498 renal): 1260 nM | GI50 (K-562 leukemia): 144 nM | TGI (K-562 leukemia): 38700 nM | GI50 (MDA-MB-231 breast): 186 nM | TGI (MDA-MB-231 breast): 16900 nM | GI50 (CCRF-CEM leukemia): 231 nM | TGI (CCRF-CEM leukemia): 14400 nM | GI50 (HCT-116 colon): 162 nM | TGI (HCT-116 colon): 4950 nM | GI50 (SK-MEL-2 melanoma): 353 nM | TGI (SK-MEL-2 melanoma): 5750 nM | GI50 (NCI-H226 lung): 286 nM | TGI (NCI-H226 lung): 7730 nM | GI50 (SR leukemia): 56.3 nM | TGI (SR leukemia): > 34400 nM | GI50 (SF-539 CNS): 80.6 nM | TGI (SF-539 CNS): 1450 nM | GI50 (T-47D breast): 116 nM | TGI (T-47D breast): 11800 nM | GI50 (HS 578T breast): 793 nM | TGI (HS 578T breast): 13500 nM | GI50 (MOLT-4 leukemia): 88.4 nM | TGI (MOLT-4 leukemia): 6320 nM | GI50 (MALME-3M melanoma): 256 nM | TGI (MALME-3M melanoma): 9030 nM | GI50 (OVCAR-8 ovarian): 329 nM | TGI (OVCAR-8 ovarian): 18200 nM | GI50 (KM12 colon): 1190 nM | TGI (KM12 colon): 13400 nM | GI50 (DU-145 prostate): 625 nM | TGI (DU-145 prostate): 12200 nM | GI50 (TK-10 renal): 986 nM | TGI (TK-10 renal): 13500 nM | GI50 (HCT-15 colon): 286 nM | TGI (HCT-15 colon): 6930 nM | GI50 (MCF7 breast): 112 nM | TGI (MCF7 breast): 11200 nM

From PubChem BioAssay (NCI)
